Reference: patent US10160767B2 (Institute of Pharmacology and Toxicology Academy of …, priority 2014, dated 2018)
Structures can show the parent of a compound that is named as a salt.

Tests used:
[1] = system: multi-drug resistant tumor cell line MES-SA; assay: Inhibition of drug-resistant tumor cell line, Cell Titer-Glo cell viability; therapeutic index against MRC5 cells; assay type: cell-based; conditions: Homo sapiens, 72 h
Protocol: The activity of example compounds to multi-drug resistant tumor cell line MES-SA was evaluated.
(§1) Experimental materials: DMEM high-glucose cell culture media (Hyclone Company), fetal calf serum (FBS) (Gibco Company), penicillin and streptomycin were purchased from North China Pharmaceutical Co., Ltd, phosphate buffer saline (PBS) was purchased from Gibco Company, Cell Titer-Glo® cell viability detection reagent was purchased from Promega Company, pancreatin and dimethylsulfoxide (DMSO) were products of Sigma Company. MES-SA cell line (human uterine sarcoma cell line) was purchased from ATCC. MRC5 cell (human embryonic lung fibroblast) was purchased from ATCC.
(§2) The cells were inoculated on a 96-well plate with white wall and penetrative bottom (Costar) in amount of 5000 cells per well, cultured at condition of 37° C., 5% CO2 for 24 h. The compounds to be tested were dissolved with DMSO and diluted to 100 mM, to obtain mother liquids of the compounds.
(§3) DMEM culture solution containing 2% FBS was used to diluted the compounds, in which concentration gradients were 3, and concentration range was 100 μM to 0.046 μM. The compounds in various dilution degrees were added to the cultured cells on the 96-well plate, 100 μl per well. Culture was performed at 37° C., CO2 for 72 h, supernatant was discarded, and cell viability detection test was performed.
(§4) AfterCell Titer-Glo® reaction buffer solution was mixed with isometric substrate, the mixture was added to 96-well plate, 100 μl per well. Cell lysis was induced by horizontally shaking for 4 min. Reaction signal was stabilized by balancing at room temperature for 15 min. Chemiluminescence units in each well of the 96-well plate were detected by using chemiluminescence detector.
Inhibition rates at different dilution degrees of each compound were calculated according to chemiluminescence value of each well, and Origin 8.0 software was used for S-type curve fitting of each compound, and for calculating EC50 value. The ratio of EC50 value of compound for MRC5 cell to EC50 value of compound for MES-SA cell was used as therapeutic index for the compound.

[2] = Solubility test (Chinese Pharmacopoeia 2010, Part II); assay type: physicochemical; conditions: water, thermodynamic from solid
tumor cell A549 = assay: Tumor cell inhibition, Cell Titer-Glo cell viability; assay type: cell-based; conditions: Homo sapiens, A549 cells, 72 h
Protocol: The activities of example compounds to tumor cell A549 were evaluated.
as §1, with “A549” for “MES-SA”, “lung adenocarcinoma” for “uterine sarcoma”, “ATCC.” for “ATCC. MRC5 cell (human embryonic lung fibroblast) was purchased from ATCC.”
as §2
as §3, with “3 nM.” for “0.046 μM.”
as §4
Inhibition rates at different dilution degrees of each compound were calculated according to chemiluminescence value of each well, and Origin 8.0 software was used for S-type curve fitting of each compound, and for calculating EC50 value.

solubility [2] [mg/mL]	IC50 (tumor cell A549) [µM]	melting point [°C]	Compound	IC50 [1] [µM]
0.1	46	120 to 124	CO[C@H]1C[C@@H]2CC[C@@H](C)[C@@](O)(O2)C(=O)C(=O)N2CCCC[C@H]2C(=O)O[C@H]([C@H](C)C[C@@H]2CC[C@@H](OC(=O)C[n+]3cccc(O)c3)[C@H](OC)C2)CC(=O)[C@H](C)/C=C(\C)[C@@H](OC(=O)C[n+]2cccc(O)c2)[C@@H](OC)C(=O)[C@H](C)C[C@H](C)/C=C/C=C/C=C/1C.[Br-].[Br-] [Example 8, 31,42-O-carbonylmethyl-(3-hydroxy-pyridine bromide salt-1-yl)-rapamycin]	< 0.046
–	57.7	140 to 142	CO[C@H]1C[C@@H]2CC[C@@H](C)[C@@](O)(O2)C(=O)C(=O)N2CCCC[C@H]2C(=O)O[C@H]([C@H](C)C[C@@H]2CC[C@@H](O)[C@H](OC)C2)CC(=O)[C@H](C)/C=C(\C)[C@@H](OC(=O)C[n+]2ccccc2)[C@@H](OC)C(=O)[C@H](C)C[C@H](C)/C=C/C=C/C=C/1C.[Br-] [Example 16, 31-O-carbonylmethyl-(pyridine bromide salt-1-yl)-rapamycin]	< 0.046
–	51.5	146 to 148	CO[C@H]1C[C@@H]2CC[C@@H](C)[C@@](O)(O2)C(=O)C(=O)N2CCCC[C@H]2C(=O)O[C@H]([C@H](C)C[C@@H]2CC[C@@H](OC(=O)C[n+]3cccc(O)c3)[C@H](OC)C2)CC(=O)[C@H](C)/C=C(\C)[C@@H](O)[C@@H](OC)C(=O)[C@H](C)C[C@H](C)/C=C/C=C/C=C/1C.[Br-] [Example 12, 42-O-carbonylmethyl-(3-hydroxy-pyridine bromide salt-1-yl)-rapamycin]	< 0.046
–	52.7	138 to 140	CO[C@H]1C[C@@H]2CC[C@@H](C)[C@@](O)(O2)C(=O)C(=O)N2CCCC[C@H]2C(=O)O[C@H]([C@H](C)C[C@@H]2CC[C@@H](O)[C@H](OC)C2)CC(=O)[C@H](C)/C=C(\C)[C@@H](OC(=O)C[n+]2cccc(C)c2)[C@@H](OC)C(=O)[C@H](C)C[C@H](C)/C=C/C=C/C=C/1C.[Br-] [Example 15, 31-O-carbonylmethyl-(3-methyl-pyridine bromide salt-1-yl)-rapamycin]	< 0.046
85	46.7	140 to 142	CO[C@H]1C[C@@H]2CC[C@@H](C)[C@@](O)(O2)C(=O)C(=O)N2CCCC[C@H]2C(=O)O[C@H]([C@H](C)C[C@@H]2CC[C@@H](OC(=O)C[n+]3ccccc3)[C@H](OC)C2)CC(=O)[C@H](C)/C=C(\C)[C@@H](OC(=O)C[n+]2ccccc2)[C@@H](OC)C(=O)[C@H](C)C[C@H](C)/C=C/C=C/C=C/1C.[Br-].[Br-] [Example 7, 31,42-O-carbonylmethyl-(pyridine bromide salt-1-yl)-rapamycin]	< 0.046
–	66.3	135 to 137	CO[C@H]1C[C@@H]2CC[C@@H](C)[C@@](O)(O2)C(=O)C(=O)N2CCCC[C@H]2C(=O)O[C@H]([C@H](C)C[C@@H]2CC[C@@H](OC(=O)C[n+]3ccccc3)[C@H](OC)C2)CC(=O)[C@H](C)/C=C(\C)[C@@H](O)[C@@H](OC)C(=O)[C@H](C)C[C@H](C)/C=C/C=C/C=C/1C.[Br-] [Example 10, 42-O-carbonylmethyl-(pyridine bromide salt-1-yl)-rapamycin]	10.9
120	44	181 to 183	CO[C@H]1C[C@@H]2CC[C@@H](C)[C@@](O)(O2)C(=O)C(=O)N2CCCC[C@H]2C(=O)O[C@H]([C@H](C)C[C@@H]2CC[C@@H](OC(=O)C[n+]3ccc(C)cc3)[C@H](OC)C2)CC(=O)[C@H](C)/C=C(\C)[C@@H](OC(=O)C[n+]2ccc(C)cc2)[C@@H](OC)C(=O)[C@H](C)C[C@H](C)/C=C/C=C/C=C/1C.[Br-].[Br-] [Example 14, 31,42-O-carbonylmethyl-(4-methyl-pyridine bromide salt-1-yl)-rapamycin]	< 0.046
47	25.1	159 to 162	CO[C@H]1C[C@@H]2CC[C@@H](C)[C@@](O)(O2)C(=O)C(=O)N2CCCC[C@H]2C(=O)O[C@H]([C@H](C)C[C@@H]2CC[C@@H](OC(=O)C[n+]3cccc(C)c3)[C@H](OC)C2)CC(=O)[C@H](C)/C=C(\C)[C@@H](OC(=O)C[n+]2cccc(C)c2)[C@@H](OC)C(=O)[C@H](C)C[C@H](C)/C=C/C=C/C=C/1C.[Br-].[Br-] [Example 9, 31,42-O-carbonylmethyl-(3-methyl-pyridine bromide salt-1-yl)-rapamycin]	7.21

The remaining lines, values behind:

Compound	solubility [2] [mg/mL]	IC50 (tumor cell A549) [µM]	melting point [°C]	IC50 [1] [µM]
CO[C@H]1C[C@@H]2CC[C@@H](C)[C@@](O)(O2)C(=O)C(=O)N2CCCC[C@H]2C(=O)O[C@H]([C@H](C)C[C@@H]2CC[C@@H](OC(=O)C[n+]3cscc3C)[C@H](OC)C2)CC(=O)[C@H](C)/C=C(\C)[C@@H](OC(=O)C[n+]2cscc2C)[C@@H](OC)C(=O)[C@H](C)C[C@H](C)/C=C/C=C/C=C/1C.[Br-].[Br-] [Example 1, 31,42-O-carbonylmethyl-(4-methyl-thiazole bromide salt-3-yl)-rapamycin]	34.5	17.4	142 to 145	< 0.046
CO[C@H]1C[C@@H]2CC[C@@H](C)[C@@](O)(O2)C(=O)C(=O)N2CCCC[C@H]2C(=O)O[C@H]([C@H](C)C[C@@H]2CC[C@@H](O)[C@H](OC)C2)CC(=O)[C@H](C)/C=C(\C)[C@@H](OC(=O)C[n+]2csc(C)c2C)[C@@H](OC)C(=O)[C@H](C)C[C@H](C)/C=C/C=C/C=C/1C [Example 6, 31-O-carbonylmethyl-(4,5-dimethyl-thiazole bromide salt-3-yl)-rapamycin]	–	52.3	–	< 0.046
CO[C@H]1C[C@@H]2CC[C@@H](C)[C@@](O)(O2)C(=O)C(=O)N2CCCC[C@H]2C(=O)O[C@H]([C@H](C)C[C@@H]2CC[C@@H](OC(=O)C[n+]3csc(C)c3C)[C@H](OC)C2)CC(=O)[C@H](C)/C=C(\C)[C@@H](O)[C@@H](OC)C(=O)[C@H](C)C[C@H](C)/C=C/C=C/C=C/1C [Example 5, 42-O-carbonylmethyl-(4,5-dimethyl-thiazole bromide salt-3-yl)-rapamycin]	–	7.4	–	< 0.046
CO[C@H]1C[C@@H]2CC[C@@H](C)[C@@](O)(O2)C(=O)C(=O)N2CCCC[C@H]2C(=O)O[C@H]([C@H](C)C[C@@H]2CC[C@@H](O)[C@H](OC)C2)CC(=O)[C@H](C)/C=C(\C)[C@@H](OC(=O)C[n+]2cscc2C)[C@@H](OC)C(=O)[C@H](C)C[C@H](C)/C=C/C=C/C=C/1C.[Br-] [Example 3, 31-O-carbonylmethyl-(4-methyl-thiazole bromide salt-3-yl)-rapamycin]	–	3.04	130 to 132	< 0.046
CO[C@H]1C[C@@H]2CC[C@@H](C)[C@@](O)(O2)C(=O)C(=O)N2CCCC[C@H]2C(=O)O[C@H]([C@H](C)C[C@@H]2CC[C@@H](OC(=O)C[n+]3csc(C)c3C)[C@H](OC)C2)CC(=O)[C@H](C)/C=C(\C)[C@@H](OC(=O)C[n+]2csc(C)c2C)[C@@H](OC)C(=O)[C@H](C)C[C@H](C)/C=C/C=C/C=C/1C.[Br-].[Br-] [Example 4, 31,42-O-carbonylmethyl-(4,5-dimethyl-thiazole bromide salt-3-yl)-rapamycin]	100	6.23	–	< 0.046
CO[C@H]1C[C@@H]2CC[C@@H](C)[C@@](O)(O2)C(=O)C(=O)N2CCCC[C@H]2C(=O)O[C@H]([C@H](C)C[C@@H]2CC[C@@H](OC(=O)C[n+]3cscc3C)[C@H](OC)C2)CC(=O)[C@H](C)/C=C(\C)[C@@H](O)[C@@H](OC)C(=O)[C@H](C)C[C@H](C)/C=C/C=C/C=C/1C.[Br-] [Example 2, 42-O-carbonylmethyl-(4-methyl-thiazole bromide salt-3-yl)-rapamycin]	–	19.3	130 to 133	< 0.046
